Experimental data taken from patent US10023575B2, “Cyclic ether derivatives of pyrazolo[1,5-a]pyrimidine-3-carboxyamide” (Boehringer Ingelheim International GmbH, priority 2015, dated 2018).

Key:
PDE 2A = PDE 2A (Homo sapiens (Human), UniProt O00408); assay: Phosphodiesterase (PDE) 2A assay with fluorescent substrate (IMAP, fluorescence polarization); format: biochemical; settings: labeled cAMP 30 nM, read-out: PDE2 IC50
Description: (§1) The PDE reaction cleaves cAMP to AMP. The IMAP system (Molecular Device) using fluorescence polarization (FP) as detection principle was used to measure enzyme activity. A fluorescent labeled cAMP was used as substrate for the reaction, generating a labeled AMP. The fluorescent AMP binds specifically to the large M(III)-based nano-particles which reduces the rotational speed of the substrate and thus increases its polarization.
(§2) The inhibition of PDE 2A or 10 enzyme activity was assessed using IMAP-Phosphodiesterase-cAMP fluorescence labeled substrate (Molecular Devices, Order No. R7506), IMAP TR-FRET screening express (Molecular Devices, Order No. R8160, the TR-FRET component will not be used) and PDE 2A or PDE10 protein expressed upon baculovirus infection in SF9 cells. The cells were incubated after infection for ˜3 days and protein production was confirmed by Western Blot. The cells were collected by centrifugation and the pellet frozen in liquid nitrogen before it was resuspended in PBS containing 1% Triton X-100 and protease inhibitors. After 45 min incubation on ice, the cell debris was removed by centrifugation (13.000 rpm, 30 min).
(§3) All reactions were performed in 384 well plates, Perkin Elmer black optiplates and IMAP reaction buffer with 0.1% Tween20 (kit component)
(§4) Compounds were serial diluted in DMSO. With an intermediate dilution step with reaction buffer DMSO concentration was reduced to achieve 1% DMSO in the assay reaction. Setup of the assay started with 10 μl enzyme (˜10 ng/well, depending on prep. batch), 5 μl compound, reaction was started by addition of 5 μl labeled cAMP (30 nM, final concentration), immediately mixed for 15 seconds on a Eppendorf mixmate (2000 rpm) followed by an incubation at room temperature for 90 minutes in the dark. Reaction is stopped by adding of 60 μl binding buffer for FP/cAMP (kit component).
(§5) Each assay plate contained wells with vehicle controls (1% DMSO) for the measurement of non-inhibited reaction (=100% control) and wells without enzyme as 0% controls.

PDE10 = PDE10 (Homo sapiens (Human), UniProt Q9Y233); assay: Phosphodiesterase (PDE) 10 assay with fluorescent substrate (IMAP, fluorescence polarization); format: biochemical; settings: labeled cAMP 30 nM
Description: as §1, §2, §3, §4, §5

PDE10, sequence (Q9Y233 whole entry): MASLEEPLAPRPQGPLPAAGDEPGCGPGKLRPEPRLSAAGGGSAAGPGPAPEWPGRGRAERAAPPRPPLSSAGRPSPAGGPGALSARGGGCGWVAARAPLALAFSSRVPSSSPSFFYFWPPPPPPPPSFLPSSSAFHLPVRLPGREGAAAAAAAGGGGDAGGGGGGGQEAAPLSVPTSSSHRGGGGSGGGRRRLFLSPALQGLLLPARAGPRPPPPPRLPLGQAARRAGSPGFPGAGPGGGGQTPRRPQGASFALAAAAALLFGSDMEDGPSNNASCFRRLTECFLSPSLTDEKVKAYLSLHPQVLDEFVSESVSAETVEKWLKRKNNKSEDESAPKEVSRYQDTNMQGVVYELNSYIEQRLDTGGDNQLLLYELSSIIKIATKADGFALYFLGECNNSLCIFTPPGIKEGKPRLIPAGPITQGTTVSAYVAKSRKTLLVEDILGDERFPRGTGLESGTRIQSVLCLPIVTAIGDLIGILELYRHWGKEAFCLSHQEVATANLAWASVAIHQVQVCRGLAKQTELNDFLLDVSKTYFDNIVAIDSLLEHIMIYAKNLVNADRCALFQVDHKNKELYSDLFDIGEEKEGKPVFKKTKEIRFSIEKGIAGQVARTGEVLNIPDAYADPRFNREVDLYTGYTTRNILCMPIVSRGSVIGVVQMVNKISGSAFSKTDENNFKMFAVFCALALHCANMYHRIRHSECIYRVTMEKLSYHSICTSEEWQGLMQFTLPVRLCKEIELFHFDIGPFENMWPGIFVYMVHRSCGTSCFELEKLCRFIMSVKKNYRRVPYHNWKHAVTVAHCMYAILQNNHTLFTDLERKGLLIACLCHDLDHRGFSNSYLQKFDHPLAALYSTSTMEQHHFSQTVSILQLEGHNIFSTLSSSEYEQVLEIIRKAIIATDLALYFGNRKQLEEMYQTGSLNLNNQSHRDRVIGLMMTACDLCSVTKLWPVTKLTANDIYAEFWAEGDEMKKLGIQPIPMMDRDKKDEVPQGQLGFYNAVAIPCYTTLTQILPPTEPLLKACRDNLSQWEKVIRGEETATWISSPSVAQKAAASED
PDE 2A, sequence (O00408 whole entry, species assumed): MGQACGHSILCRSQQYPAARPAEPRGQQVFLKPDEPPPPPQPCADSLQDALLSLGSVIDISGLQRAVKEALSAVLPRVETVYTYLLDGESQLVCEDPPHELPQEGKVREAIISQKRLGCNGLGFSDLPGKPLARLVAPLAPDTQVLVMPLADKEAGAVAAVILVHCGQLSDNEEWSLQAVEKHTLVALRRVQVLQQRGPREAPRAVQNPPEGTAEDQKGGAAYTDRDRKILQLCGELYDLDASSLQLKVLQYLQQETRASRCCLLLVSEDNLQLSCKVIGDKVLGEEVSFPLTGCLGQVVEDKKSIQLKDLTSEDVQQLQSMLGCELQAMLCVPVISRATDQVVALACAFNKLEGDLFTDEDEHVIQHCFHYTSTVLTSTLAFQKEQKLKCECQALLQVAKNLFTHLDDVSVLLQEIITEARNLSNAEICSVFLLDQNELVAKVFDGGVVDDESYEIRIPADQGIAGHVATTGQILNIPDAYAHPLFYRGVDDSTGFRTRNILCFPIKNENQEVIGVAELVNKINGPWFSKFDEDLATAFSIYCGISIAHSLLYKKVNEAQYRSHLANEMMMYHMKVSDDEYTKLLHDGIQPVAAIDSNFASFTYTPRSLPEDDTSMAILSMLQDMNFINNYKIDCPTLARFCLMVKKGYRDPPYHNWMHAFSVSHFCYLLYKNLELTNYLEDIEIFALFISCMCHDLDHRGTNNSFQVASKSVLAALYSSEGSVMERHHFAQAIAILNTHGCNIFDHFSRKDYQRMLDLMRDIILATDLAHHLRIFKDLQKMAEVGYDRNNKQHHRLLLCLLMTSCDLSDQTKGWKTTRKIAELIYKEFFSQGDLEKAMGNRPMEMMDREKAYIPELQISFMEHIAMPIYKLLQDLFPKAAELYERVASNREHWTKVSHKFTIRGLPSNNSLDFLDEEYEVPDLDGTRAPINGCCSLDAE

Compound: O=C(NC1(c2ccc(C(F)(F)F)cc2)CCCOC1)c1cnn2cc(C3CC3)cnc12 (racemic) [Example 32]
- IC50 (PDE 2A): 67 nM
- IC50 (PDE10): > 10000 nM

Compound: O=C(NC1(c2ccc(OC(F)(F)F)cc2)CCCOC1)c1cnn2cc(C3CC3)cnc12 (racemic) [Example 33]
- IC50 (PDE 2A): 83 nM
- IC50 (PDE10): > 10000 nM

Compound: O=C(NC1(c2ccc(C(F)(F)F)cc2F)CCOC1)c1cnn2cc(C3CC3)cnc12 (racemic) [Example 34]
- IC50 (PDE 2A): 27 nM
- IC50 (PDE10): 10800 nM

Compound: Cc1cnc2c(C(=O)NC3(c4ccc(C(F)(F)F)cc4)CCOC3)cnn2c1 (racemic) [Example 36]
- IC50 (PDE10): > 10000 nM

Compound: O=C(NC1(c2ccc(Cl)cc2F)CCOC1)c1cnn2cc(C3CC3)cnc12 (racemic) [Example 38]
- IC50 (PDE 2A): 331 nM
- IC50 (PDE10): 6710 nM

Compound: Cc1cnc2c(C(=O)NC3(c4ccc(Cl)cc4F)CCOC3)cnn2c1 (racemic) [Example 39]
- IC50 (PDE 2A): 568 nM
- IC50 (PDE10): > 10000 nM

Compound: Cc1nn2cc(C3CC3)cnc2c1C(=O)NC1(c2ccc(C(F)(F)F)nc2)CCOC1 (racemic) [Example 42]
- IC50 (PDE 2A): 130 nM
- IC50 (PDE10): 5590 nM

Compound: Cc1cnc2c(C(=O)NC3(c4ccc(C(F)(F)F)cn4)CCOC3)c(C)nn2c1 (racemic) [Example 44]
- IC50 (PDE 2A): 840 nM

Compound: Cc1cnc2c(C(=O)NC3(c4ccc(C(F)(F)F)cc4F)CCOCC3O)cnn2c1 (racemic) [Example 47]
- IC50 (PDE10): > 10000 nM

Compound: O=C(N[C@]1(c2ccc(C(F)(F)F)cc2F)CCOC[C@H]1O)c1cnn2cc(C3CC3)cnc12 (racemic) [Example 48]
- IC50 (PDE 2A): 1.35 nM
- IC50 (PDE10): 6620 nM

Compound: O=C(N[C@]1(c2ccc(C(F)(F)F)cc2F)CCOC[C@@H]1O)c1cnn2cc(C3CC3)cnc12 (racemic) [Example 49]
- IC50 (PDE 2A): 70 nM
- IC50 (PDE10): > 10000 nM

Compound: Cc1cnc2c(C(=O)NC3(c4ccc(C(F)(F)F)nc4)CCOCC3O)cnn2c1 (racemic) [Example 50]
- IC50 (PDE 2A): 596 nM
- IC50 (PDE10): > 10000 nM

Compound: O=C(NC1(c2ccc(C(F)(F)F)nc2)CCOCC1O)c1cnn2cc(C3CC3)cnc12 (racemic) [Example 52]
- IC50 (PDE 2A): 231 nM
- IC50 (PDE10): > 10000 nM

Compound: Cc1cnc2c(C(=O)NC3(c4ncc(C(F)(F)F)cc4F)CCOCC3O)cnn2c1 (racemic) [Example 56]
- IC50 (PDE 2A): 229 nM
- IC50 (PDE10): > 10000 nM

Compound: O=C(NC1(c2ncc(C(F)(F)F)cc2F)CCOCC1O)c1cnn2cc(C3CC3)cnc12 (racemic) [Example 57]
- IC50 (PDE 2A): 103 nM
- IC50 (PDE10): > 10000 nM

Compound: Cc1cnc2c(C(=O)NC3(c4ccc(C(F)(F)F)cc4)CCOCC3O)cnn2c1 (racemic) [Example 59]
- IC50 (PDE 2A): 60 nM
- IC50 (PDE10): > 10000 nM

Compound: Cc1nn2cc(C3CC3)cnc2c1C(=O)NC1(c2ncc(C(F)(F)F)cc2F)CCOCC1O (racemic) [Example 61]
- IC50 (PDE 2A): 19 nM
- IC50 (PDE10): 6650 nM

Compound: Cc1nn2cc(C3CC3)cnc2c1C(=O)NC1(c2ncc(C(F)(F)F)cc2F)CCOCC1(C)O (racemic) [Example 62]
- IC50 (PDE 2A): 127 nM

Compound: O=C(NC1(c2ccc(C(F)(F)F)cn2)CCOCC1O)c1cnn2cc(C3CC3)cnc12 (racemic) [Example 63]
- IC50 (PDE 2A): 124 nM
- IC50 (PDE10): > 10000 nM

Compound: Cc1cnc2c(C(=O)NC3(c4ccc(C(F)(F)F)cn4)CCOCC3O)cnn2c1 (racemic) [Example 64]
- IC50 (PDE 2A): 496 nM
- IC50 (PDE10): > 10000 nM

Compound: Cc1nn2cc(C3CC3)cnc2c1C(=O)NC1(c2ccc(C(F)(F)F)cn2)CCOCC1O (racemic) [Example 65]
- IC50 (PDE 2A): 30 nM
- IC50 (PDE10): 9760 nM

Compound: Cc1cnc2c(C(=O)NC3(c4ccc(C(F)(F)F)cc4F)COCC3O)cnn2c1 (single isomer, unassigned) [Example 72]
- IC50 (PDE10): > 10000 nM

Compound: Cc1cnc2c(C(=O)NC3(c4ccc(C(F)(F)F)cc4F)COCC3O)cnn2c1 (single isomer, unassigned) [Example 73]
- IC50 (PDE10): > 10000 nM

Compound: Cc1cnc2c(C(=O)NC3(c4ccc(C(F)(F)F)cc4F)COCC3O)cnn2c1 (single isomer, unassigned) [Example 74]
- IC50 (PDE10): > 10000 nM

Compound: Cc1cnc2c(C(=O)NC3(c4ccc(C(F)(F)F)cc4F)COCC3O)cnn2c1 (single isomer, unassigned) [Example 75]
- IC50 (PDE10): > 10000 nM

Compound: O=C(NC1(c2ccc(C(F)(F)F)cc2F)CCOCC1O)c1cnn2cc(C3CC3)cnc12 (single isomer, unassigned) [Example 82b]
- IC50 (PDE 2A): 40 nM
- IC50 (PDE10): 8460 nM

Compound: Cc1cnc2c(C(=O)NC3(c4ccc(C(F)(F)F)nc4)CCOCC3O)cnn2c1 (single isomer, unassigned) [Example 87a]
- IC50 (PDE 2A): 1000 nM
- IC50 (PDE10): > 10000 nM

Compound: Cc1cnc2c(C(=O)NC3(c4ccc(C(F)(F)F)nc4)CCOCC3O)cnn2c1 (single isomer, unassigned) [Example 87b]
- IC50 (PDE 2A): 184 nM

Compound: O=C(NC1(c2ccc(C(F)(F)F)nc2)CCOCC1O)c1cnn2cc(C3CC3)cnc12 (single isomer, unassigned) [Example 89a]
- IC50 (PDE 2A): 1000 nM
- IC50 (PDE10): > 10000 nM

Compound: Cc1nn2cc(C3CC3)cnc2c1C(=O)NC1(c2ncc(C(F)(F)F)cc2F)CCOCC1O (single isomer, unassigned) [Example 90a]
- IC50 (PDE 2A): 200 nM
- IC50 (PDE10): 8590 nM

Compound: Cc1nn2cc(C3CC3)cnc2c1C(=O)NC1(c2ncc(C(F)(F)F)cc2F)CCOCC1O (single isomer, unassigned) [Example 90b]
- IC50 (PDE 2A): 14 nM
- IC50 (PDE10): 7350 nM

Compound: Cc1cnc2c(C(=O)NC3(c4ccc(C(F)(F)F)cc4F)COCC3(C)O)cnn2c1 (single isomer, unassigned) [Example 92a]
- IC50 (PDE10): > 10000 nM

Compound: Cc1cnc2c(C(=O)NC3(c4ccc(C(F)(F)F)cc4F)COCC3(C)O)cnn2c1 (single isomer, unassigned) [Example 92b]
- IC50 (PDE10): > 10000 nM

Compound: Cc1cnc2c(C(=O)NC3(c4ccc(C(F)(F)F)cc4F)COCC3(C)O)cnn2c1 (single isomer, unassigned) [Example 93a]
- IC50 (PDE10): > 10000 nM

Compound: Cc1cnc2c(C(=O)NC3(c4ccc(C(F)(F)F)cc4F)COCC3(C)O)cnn2c1 (single isomer, unassigned) [Example 93b]
- IC50 (PDE10): > 10000 nM

Compound: Cc1cnc2c(C(=O)NC3(c4ccc(Cl)cc4F)CCOCC3)c(C)nn2c1 [Example 4]
- IC50 (PDE 2A): 48 nM
- IC50 (PDE10): 550 nM

Compound: Cc1cnc2c(C(=O)NC3(c4ccc(Cl)cc4F)CCOCC3)cnn2c1 [Example 5]
- IC50 (PDE 2A): 258 nM
- IC50 (PDE10): 12200 nM

Compound: O=C(NC1(c2ccc(F)cc2Cl)CCOCC1)c1cnn2cc(C3CC3)cnc12 [Example 6]
- IC50 (PDE 2A): 199 nM
- IC50 (PDE10): > 10000 nM

Compound: O=C(NC1(c2ccc(Cl)cc2F)CCOCC1)c1cnn2cc(C3CC3)cnc12 [Example 7]
- IC50 (PDE 2A): 77 nM
- IC50 (PDE10): 9110 nM

Compound: O=C(NC1(c2ccc(C(F)(F)F)cc2)CCOCC1)c1cnn2cc(C3CC3)cnc12 [Example 8]
- IC50 (PDE 2A): 69 nM
- IC50 (PDE10): > 10000 nM

Compound: Cc1cnc2c(C(=O)NC3(c4ccc(C(F)(F)F)cc4)CCOCC3)cnn2c1 [Example 9]
- IC50 (PDE 2A): 117 nM
- IC50 (PDE10): > 10000 nM

Compound: Cc1nn2cc(C3CC3)cnc2c1C(=O)NC1(c2ccc3ccccc3n2)CCOCC1 [Example 11]
- IC50 (PDE 2A): 297 nM
- IC50 (PDE10): 1470 nM

Compound: Cc1cnc2c(C(=O)NC3(c4ccc5ccccc5n4)CCOCC3)cnn2c1 [Example 12]
- IC50 (PDE 2A): 1650 nM
- IC50 (PDE10): > 10000 nM

Compound: O=C(NC1(c2ccc(Br)cc2)CCOCC1)c1cnn2cc(C3CC3)cnc12 [Example 13]
- IC50 (PDE 2A): 359 nM
- IC50 (PDE10): 9910 nM

Compound: O=C(NC1(c2ccc(OC(F)F)c(F)c2)CCOCC1)c1cnn2cc(C3CC3)cnc12 [Example 14]
- IC50 (PDE 2A): 456 nM
- IC50 (PDE10): 8430 nM

Compound: Cc1cnc2c(C(=O)NC3(c4ccc(C(F)(F)F)cc4F)COCC3(C)O)cnn2c1 (stereo not drawn) [Example 58]
- IC50 (PDE10): > 10000 nM
